Assay results as given in patent US8178668B2, “2-aminopyridine kinase inhibitors” (OSI Pharmaceuticals, LLC, priority 2008, dated 2012).
Structures can show the parent of a compound that is named as a salt.

What was measured:
[1] = target: MET (human) (Homo sapiens, UniProt P08581); assay: MET kinase AlphaScreen assay (Km of ATP); assay type: biochemical; details: ATP at Km; at least duplicate experiments
Experimental: (§1) Person skilled in the art will appreciate that a variety of assay formats may be used to determine the activity of the compounds of this invention. For example, AlphaScreen (Amplified Luminescent Proximity Homogeneous Assay) technology was used with the kinases described below. Assay ATP concentrations for individual kinases are included in the text.
MET (human)—Km of ATP: MET assay is performed in a 384 well assay containing 200 ng/μL biotinylated poly(Glu,Tyr), 0.334 mM vanadate, desired concentration of ATP optimized for the enzyme in assay buffer (50 mM HEPES (pH=7.4), 5 mM MgCl2, 5 mM MnCl2, and 1% glycerol). Desired compound is added in a final concentration of 1% DMSO with control being vehicle of DMSO alone. MET is diluted to the optimized concentration (optimized on a lot-by-lot basis) in an enzyme diluent buffer (50 mM Tris pH=7.4, 1% glycerol, 0.03% Brij35, 0.24 mM EGTA, 1 mM DTT, and 0.003% BSA). Enzyme is added to initiate the reaction and incubated for 60 min at RT. In subdued light, appropriate amount of PT66 donor and acceptor beads (diluted 1:260 from manufacturer's provision in a 25 mM Tris HCl (pH=7.5), 400 mM NaCl, 100 mM EDTA, 0.3% BSA buffer) are added to the wells. The plates, incubated for 1 h, are read on an AlphaQuest plate reader

[2] = target: RON (human) (Homo sapiens, UniProt Q04912); assay: RON kinase AlphaScreen assay (Km of ATP); assay type: biochemical; details: ATP at Km; at least duplicate experiments
Experimental: as §1
RON (human)—Km of ATP: RON assay is performed in a 384 well assay containing 200 ng/μL biotinylated poly(Glu,Tyr), 0.334 mM vanadate, desired concentration of ATP optimized for the enzyme in assay buffer (50 mM HEPES (pH=7.4), 12.5 mM MgCl2 and 1% glycerol). Desired compound is added in a final concentration of 1% DMSO with control being vehicle of DMSO alone. RON is diluted to the optimized (on a lot-by-lot basis) concentration in an enzyme diluent buffer (50 mM HEPES pH=7.4, 12.5 mM MgCl2 and 1% glycerol, 0.03% Brij35, 0.3 mM EGTA, lmM DTT, and 0.003% BSA). Enzyme is added to initiate the reaction and incubated for 30 min at RT. In subdued light, appropriate amount of PT66 donor and acceptor beads (diluted 1:260 from manufacturer's provision in a 25 mM Tris HCl (pH=7.5), 200 mM NaCl, 100 mM EDTA, 0.3% BSA buffer) are added to the wells. The plates, incubated for 1 h, are read on an AlphaQuest plate reader.

Sequence of RON (human) (Q04912 25-1400): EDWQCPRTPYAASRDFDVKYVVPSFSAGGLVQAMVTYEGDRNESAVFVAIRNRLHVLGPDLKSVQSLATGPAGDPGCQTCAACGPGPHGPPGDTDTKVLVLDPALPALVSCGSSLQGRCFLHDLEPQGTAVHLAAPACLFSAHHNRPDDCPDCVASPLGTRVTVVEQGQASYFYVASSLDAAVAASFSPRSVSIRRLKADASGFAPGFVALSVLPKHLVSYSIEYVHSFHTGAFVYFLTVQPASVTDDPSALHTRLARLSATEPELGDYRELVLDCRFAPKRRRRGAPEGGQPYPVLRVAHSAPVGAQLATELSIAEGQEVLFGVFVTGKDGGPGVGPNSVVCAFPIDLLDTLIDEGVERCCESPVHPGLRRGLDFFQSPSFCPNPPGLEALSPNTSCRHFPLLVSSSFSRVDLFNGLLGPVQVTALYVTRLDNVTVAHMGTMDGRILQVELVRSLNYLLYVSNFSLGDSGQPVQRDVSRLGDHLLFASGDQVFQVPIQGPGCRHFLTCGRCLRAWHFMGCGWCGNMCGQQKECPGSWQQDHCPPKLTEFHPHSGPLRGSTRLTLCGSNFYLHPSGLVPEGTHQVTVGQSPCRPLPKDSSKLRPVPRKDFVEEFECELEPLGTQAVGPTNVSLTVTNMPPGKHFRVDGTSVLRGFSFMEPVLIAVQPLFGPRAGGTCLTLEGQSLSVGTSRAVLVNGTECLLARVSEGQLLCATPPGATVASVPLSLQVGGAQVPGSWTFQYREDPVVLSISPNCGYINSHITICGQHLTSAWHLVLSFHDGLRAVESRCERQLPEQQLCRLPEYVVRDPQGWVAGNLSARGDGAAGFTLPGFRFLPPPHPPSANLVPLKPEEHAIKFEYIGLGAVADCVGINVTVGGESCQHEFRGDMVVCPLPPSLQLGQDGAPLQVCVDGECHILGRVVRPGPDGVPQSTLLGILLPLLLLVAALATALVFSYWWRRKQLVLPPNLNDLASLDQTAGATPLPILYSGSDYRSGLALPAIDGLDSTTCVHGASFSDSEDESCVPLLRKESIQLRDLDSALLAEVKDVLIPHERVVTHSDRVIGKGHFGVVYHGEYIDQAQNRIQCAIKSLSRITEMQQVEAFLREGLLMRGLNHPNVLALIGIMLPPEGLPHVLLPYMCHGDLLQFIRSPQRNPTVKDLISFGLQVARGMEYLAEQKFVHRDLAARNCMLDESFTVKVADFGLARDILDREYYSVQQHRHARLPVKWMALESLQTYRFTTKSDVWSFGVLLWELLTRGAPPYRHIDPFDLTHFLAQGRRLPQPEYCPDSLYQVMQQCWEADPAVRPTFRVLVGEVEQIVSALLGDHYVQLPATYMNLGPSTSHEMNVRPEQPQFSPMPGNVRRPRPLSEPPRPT
Sequence of MET (human) (P08581 25-1390): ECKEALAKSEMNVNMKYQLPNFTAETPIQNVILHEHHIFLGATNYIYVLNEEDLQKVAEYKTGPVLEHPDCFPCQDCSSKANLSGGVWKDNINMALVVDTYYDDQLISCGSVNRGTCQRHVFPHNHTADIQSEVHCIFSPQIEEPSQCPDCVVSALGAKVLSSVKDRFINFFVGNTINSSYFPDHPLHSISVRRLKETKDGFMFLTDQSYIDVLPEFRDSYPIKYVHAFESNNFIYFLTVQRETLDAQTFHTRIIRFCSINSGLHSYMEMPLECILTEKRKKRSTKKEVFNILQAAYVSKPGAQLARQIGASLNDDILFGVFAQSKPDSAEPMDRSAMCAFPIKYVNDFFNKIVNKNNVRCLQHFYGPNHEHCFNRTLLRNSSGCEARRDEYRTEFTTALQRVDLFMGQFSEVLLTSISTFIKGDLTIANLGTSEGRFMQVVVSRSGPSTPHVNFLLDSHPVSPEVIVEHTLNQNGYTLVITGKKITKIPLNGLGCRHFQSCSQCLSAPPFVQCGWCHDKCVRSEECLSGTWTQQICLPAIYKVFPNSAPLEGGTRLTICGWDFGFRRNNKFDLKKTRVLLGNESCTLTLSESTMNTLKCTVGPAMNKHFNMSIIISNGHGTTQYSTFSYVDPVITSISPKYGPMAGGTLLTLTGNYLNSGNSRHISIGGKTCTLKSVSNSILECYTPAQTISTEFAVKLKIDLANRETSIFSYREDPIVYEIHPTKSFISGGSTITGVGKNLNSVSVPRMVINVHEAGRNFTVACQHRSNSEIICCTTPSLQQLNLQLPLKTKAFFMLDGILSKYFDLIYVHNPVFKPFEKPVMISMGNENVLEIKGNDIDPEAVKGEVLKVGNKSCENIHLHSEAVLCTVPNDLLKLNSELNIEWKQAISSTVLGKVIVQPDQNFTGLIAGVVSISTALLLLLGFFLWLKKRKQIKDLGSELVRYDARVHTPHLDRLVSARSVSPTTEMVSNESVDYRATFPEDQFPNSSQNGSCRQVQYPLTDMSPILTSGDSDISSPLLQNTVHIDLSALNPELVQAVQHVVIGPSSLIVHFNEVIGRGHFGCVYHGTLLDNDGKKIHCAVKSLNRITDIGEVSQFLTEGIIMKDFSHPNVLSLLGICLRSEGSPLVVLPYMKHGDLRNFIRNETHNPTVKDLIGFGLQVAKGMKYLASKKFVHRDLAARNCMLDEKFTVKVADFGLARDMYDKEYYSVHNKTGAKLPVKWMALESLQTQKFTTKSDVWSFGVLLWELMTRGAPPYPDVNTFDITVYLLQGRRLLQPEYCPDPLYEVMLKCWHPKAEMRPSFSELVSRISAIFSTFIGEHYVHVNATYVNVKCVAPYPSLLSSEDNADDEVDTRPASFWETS

Compound	IC50 [1] [nM]	IC50 [2] [nM]
Nc1ncc(-c2cnn(C3CCNCC3)c2)cc1-c1cc2ccccc2cn1 [Example 13, 3-Isoquinolin-3-yl-5-(1-piperidin-4-yl-1H-pyrazol-4-yl)-pyridin-2-ylamine trihydrochloride]	100 to 1000	1000 to 20000
Nc1ncc(-c2cnn(C3CCNCC3)c2)cc1-c1cc2ccc(OC(F)(F)F)cc2cn1 [Example 14, 5-(1-Piperidin-4-yl-1H-pyrazol-4-yl)-3-(7-trifluoromethoxy-isoquinolin-3-yl)-pyridin-2-ylamine trihydrochloride]	1000 to 20000	1000 to 20000
Nc1ncc(-c2cnn(C3CCNCC3)c2)cc1-c1cc2c(Cl)c(F)cc(F)c2cn1 [Example 15, 3-(5-Chloro-6,8-difluoroisoquinolin-3-yl)-5-(1-piperidin-4-yl-1H-pyrazol-4-yl)-pyridin-2-ylamine trihydrochloride salt]	≤ 100	100 to 1000
Nc1ncc(-c2cnn(C3CCNCC3)c2)cc1-c1cc2cc(C(F)(F)F)ccc2cn1 [Example 16, 5-(1-Piperidin-4-yl-1H-pyrazol-4-yl)-3-(6-trifluoromethylisoquinolin-3-yl)-pyridin-2-ylamine trihydrochloride salt]	100 to 1000	100 to 1000
Nc1ncc(-c2cnn(C3CCNCC3)c2)cc1-c1cc2ccc(C(F)(F)F)cc2cn1 [Example 17, 5-(1-Piperidin-4-yl-1H-pyrazol-4-yl)-3-(7-trifluoromethylisoquinolin-3-yl)-pyridin-2-ylamine tri-hydrochloride salt]	100 to 1000	100 to 1000
Nc1ncc(-c2cnn(C3CCNCC3)c2)cc1-c1cc2c(C(F)(F)F)cccc2cn1 [Example 18, 5-(1-Piperidin-4-yl-1H-pyrazol-4-yl)-3-(5-trifluoromethylisoquinolin-3-yl)-pyridin-2-ylamine trihydrochloride salt]	100 to 1000	100 to 1000
Nc1ncc(-c2cnn(C3CCNCC3)c2)cc1-c1cc2cccc(C(F)(F)F)c2cn1 [Example 19, 5-(1-Piperidin-4-yl-1H-pyrazol-4-yl)-3-(8-trifluoromethylisoquinolin-3-yl)-pyridin-2-ylamine trihydrochloride salt]	100 to 1000	100 to 1000
Cc1ccc(C)c2cc(-c3cc(-c4cnn(C5CCNCC5)c4)cnc3N)ncc12 [Example 20, 3-(5,8-Dimethylisoquinolin-3-yl)-5-(1-piperidin-4-yl-1H-pyrazol-4-yl)-pyridin-2-ylamine trihydrochloride salt]	100 to 1000	100 to 1000
Nc1ncc(-c2cnn(C3CCNCC3)c2)cc1-c1cc2ccc(Br)cc2cn1 [Example 21, 3-(7-Bromoisoquinolin-3-yl)-5-(1-piperidin-4-yl-1H-pyrazol-4-yl)-pyridin-2-ylamine trihydrochloride salt]	100 to 1000	1000 to 20000
Nc1ncc(-c2cnn(C3CCNCC3)c2)cc1-c1cc2c(Br)cccc2cn1 [Example 22, 3-(5-Bromoisoquinolin-3-yl)-5-(1-piperidin-4-yl-1H-pyrazol-4-yl)-pyridin-2-ylamine trihydrochloride salt]	100 to 1000	1000 to 20000
Nc1ncc(-c2cnn(C3CCNCC3)c2)cc1-c1cc2cc(Br)ccc2cn1 [Example 23, 3-(6-Bromoisoquinolin-3-yl)-5-(1-piperidin-4-yl-1H-pyrazol-4-yl)-pyridin-2-ylamine trihydrochloride salt]	100 to 1000	100 to 1000
Nc1ncc(-c2cnn(C3CCNCC3)c2)cc1-c1cc2cccc(Br)c2cn1 [Example 24, 3-(8-Bromoisoquinolin-3-yl)-5-(1-piperidin-4-yl-1H-pyrazol-4-yl)-pyridin-2-ylamine trihydrochloride salt]	100 to 1000	100 to 1000
Nc1ncc(-c2cnn(C3CCNCC3)c2)cc1-c1cc2cc(-c3ccccc3)ccc2cn1 [Example 25, 3-(6-Phenylisoquinolin-3-yl)-5-(1-piperidin-4-yl-1H-pyrazol-4-yl)-pyridin-2-ylamine tri-hydrochloride salt]	100 to 1000	100 to 1000
Nc1ncc(-c2cnn(C3CCNCC3)c2)cc1-c1cc2ccc(-c3ccccc3)cc2cn1 [Example 26, 3-(7-Phenylisoquinolin-3-yl)-5-(1-piperidin-4-yl-1H-pyrazol-4-yl)-pyridin-2-ylamine tri-hydrochloride salt]	100 to 1000	100 to 1000
Nc1ncc(-c2cnn(C3CCNCC3)c2)cc1-c1cc2c(O)cccc2cn1 [Example 27, 3-[2-Amino-5-(1-piperidin-4-yl-1H-pyrazol-4-yl)-pyridin-3-yl]-isoquinolin-5-ol tri-hydrochloride salt]	100 to 1000	100 to 1000
Nc1ncc(-c2cnn(C3CCNCC3)c2)cc1-c1cc2cc(O)ccc2cn1 [Example 28, 3-[2-Amino-5-(1-piperidin-4-yl-1H-pyrazol-4-yl)-pyridin-3-yl]-isoquinolin-6-ol trihydrochloride salt]	100 to 1000	1000 to 20000
Nc1ncc(-c2cnn(C3CCNCC3)c2)cc1-c1cc2ccc(O)cc2cn1 [Example 29, 3-[2-Amino-5-(1-piperidin-4-yl-1H-pyrazol-4-yl)-pyridin-3-yl]-isoquinolin-7-ol]	100 to 1000	100 to 1000
COc1nc(-c2cc(-c3cnn(C4CCNCC4)c3)cnc2N)cc2ccccc12 [Example 30, 3-(1-Methoxyisoquinolin-3-yl)-5-(1-piperidin-4-yl-1H-pyrazol-4-yl)-pyridin-2-ylamine trihydrochloride salt]	100 to 1000	1000 to 20000
N#Cc1ccc2cnc(-c3cc(-c4cnn(C5CCNCC5)c4)cnc3N)cc2c1 [Example 31, 3-[2-Amino-5-(1-piperidin-4-yl-1H-pyrazol-4-yl)-pyridin-3-yl]-isoquinoline-6-carbonitrile trihydrochloride salt]	1000 to 20000	1000 to 20000
N#Cc1ccc2cc(-c3cc(-c4cnn(C5CCNCC5)c4)cnc3N)ncc2c1 [Example 32, 3-[2-Amino-5-(1-piperidin-4-yl-1H-pyrazol-4-yl)-pyridin-3-yl]-isoquinoline-7-carbonitrile trihydrochloride salt]	100 to 1000	100 to 1000
N#Cc1cccc2cnc(-c3cc(-c4cnn(C5CCNCC5)c4)cnc3N)cc12 [Example 33, 3-[2-Amino-5-(1-piperidin-4-yl-1H-pyrazol-4-yl)-pyridin-3-yl]-isoquinoline-5-carbonitrile trihydrochloride salt]	100 to 1000	100 to 1000
Nc1ncc(-c2cnn(C3CCNCC3)c2)cc1-c1cc2ccc(F)cc2cn1 [Example 34, 3-(7-Fluoroisoquinolin-3-yl)-5-(1-piperidin-4-yl-1H-pyrazol-4-yl)-pyridin-2-ylamine]	100 to 1000	1000 to 20000
Nc1ncc(-c2cnn(C3CCNCC3)c2)cc1-c1cc2cc(F)ccc2cn1 [Example 35, 3-(6-Fluoroisoquinolin-3-yl)-5-(1-piperidin-4-yl-1H-pyrazol-4-yl)-pyridin-2-ylamine]	1000 to 20000	1000 to 20000
N#Cc1cccc2cc(-c3cc(-c4cnn(C5CCNCC5)c4)cnc3N)ncc12 [Example 36, 3-[2-Amino-5-(1-piperidin-4-yl-1H-pyrazol-4-yl)-pyridin-3-yl]-isoquinoline-8-carbonitrile trihydrochloride salt]	100 to 1000	100 to 1000
N#Cc1ccc(F)c2cnc(-c3cc(-c4cnn(C5CCNCC5)c4)cnc3N)cc12 [Example 37, 3-[2-Amino-5-(1-piperidin-4-yl-1H-pyrazol-4-yl)-pyridin-3-yl]-8-fluoro-isoquinoline-5-carbonitrile trihydrochloride]	100 to 1000	100 to 1000
Nc1ncc(-c2cnn(C3CCNCC3)c2)cc1-c1cc2ccc(F)c(Cl)c2cn1 [Example 38, 3-(8-Chloro-7-fluoroisoquinolin-3-yl)-5-(1-piperidin-4-yl-1H-pyrazol-4-yl)-pyridin-2-ylamine trihydrochloride salt]	≤ 100	100 to 1000
Nc1ncc(-c2cnn(C3CCNCC3)c2)cc1-c1cc2cccc(F)c2cn1 [Example 39, 3-(8-Fluoroisoquinolin-3-yl)-5-(1-piperidin-4-yl-1H-pyrazol-4-yl)-pyridin-2-ylamine]	≤ 100	100 to 1000
